Patent US20220281876A1, “DEGRADATION OF BRUTON'S TYROSINE KINASE (BTK) BY CONJUGATION OF BTK INHIBITORS WITH E3 LIGASE LIGAND AND METHODS OF USE” (BEIGENE, LTD., priority 2019, published 2022)

biological target: T1, BTK (Homo sapiens, UniProt Q06187); assay: BTK cell degradation in Ramos cells (total BTK ELISA); format: cell-based; settings: 16 h incubation, FastScan total BTK ELISA
T1 construct: endogenous in cells; host or cells: Ramos cells
Protocol: Ramos cells are treated with compounds diluted in 0.1% DMSO, dilution is done according to the following protocol: (1) make 1000x stock solution in DMSO from 10 mM by 5-fold dilution, total 7 doses were included; (2) make 10x solution in cell culture medium by transferring 1 ul 1000x stock solution into 99 ul medium; (3) 11 ul of 10× solution is added to cells and incubate for 16 h.
Cells in 96 well plate are harvested by centrifugation (1200 rpm), and wash once with ice-cold PBS. Then, 100 ul 1×cell extraction buffer is added in each well. The cells are placed on a shaker for 20 min at 4° C.; 5 ul lysate is transferred to 45 ul of 1×cell extraction buffer in ELISA plate, and 50 ul of the antibody cocktail is added in each well; seal the plate and incubate 1 hour at room temperature on a plate shaker; medium is discarded from the plate, tap the plated on a paper towel, wash 3×200 ul ELISA wash buffer; add 100 ul of TMB to each well and incubate the plate in the dark for 15 min at room temperature on a shaker; add 100 ul of STOP solution to each well; read absorbance at 450 nm. The BTK ELISA assay was performed using FastScan total BTK ELISA kit (Cell Signaling Cat #36609).

T1 sequence (Q06187 whole entry): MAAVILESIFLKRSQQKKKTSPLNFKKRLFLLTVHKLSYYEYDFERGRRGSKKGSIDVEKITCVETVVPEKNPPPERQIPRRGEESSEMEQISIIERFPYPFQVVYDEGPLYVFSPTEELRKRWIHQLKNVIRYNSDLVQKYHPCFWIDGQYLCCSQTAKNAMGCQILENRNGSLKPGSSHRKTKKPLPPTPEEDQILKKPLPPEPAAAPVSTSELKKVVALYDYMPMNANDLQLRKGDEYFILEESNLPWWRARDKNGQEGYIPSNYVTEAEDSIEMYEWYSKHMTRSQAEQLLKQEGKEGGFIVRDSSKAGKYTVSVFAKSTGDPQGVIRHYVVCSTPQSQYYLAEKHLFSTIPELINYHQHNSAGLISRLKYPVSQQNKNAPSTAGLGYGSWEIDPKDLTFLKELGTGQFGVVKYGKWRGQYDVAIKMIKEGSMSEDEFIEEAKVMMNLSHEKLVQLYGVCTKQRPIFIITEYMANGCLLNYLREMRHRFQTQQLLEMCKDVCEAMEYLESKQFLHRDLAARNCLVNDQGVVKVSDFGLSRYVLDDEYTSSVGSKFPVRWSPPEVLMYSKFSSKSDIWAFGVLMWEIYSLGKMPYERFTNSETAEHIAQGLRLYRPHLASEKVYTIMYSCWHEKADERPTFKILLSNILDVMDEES

Row | DC50 | SMILES
1 | > 10000 nM | NC(=O)c1c(-c2ccc(Oc3ccccc3)cc2)nn2c1NCC[C@H]2C1CCN(C(=O)c2cn(CCOCCOCCOCCOCCOCCOCCOCCNc3cccc4c3C(=O)N(C3CCC(=O)NC3=O)C4=O)nn2)CC1 (stereo partly drawn) [Example 17, (7S)-7-(1-(1-(23-((2-(2,6-dioxopiperidin-3-yl)-1,3-dioxoisoindolin-4-yl)amino)-3,6,9, 12, 15, 18, 21-heptaoxatricosyl)-1H-1,2,3-triazole-4-carbonyl)piperidin-4-yl)-2-(4-phenoxyphenyl)-4,5,6,7-tetrahydropyrazolo[1,5-a]pyrimidine-3-carboxamide]
2 | 236 nM | NC(=O)c1c(-c2ccc(Oc3ccccc3)cc2)nn2c1NCC[C@H]2C1CCN(C(=O)CCCc2cn(CCOCCNc3cccc4c3C(=O)N(C3CCC(=O)NC3=O)C4=O)nn2)CC1 (stereo partly drawn) [Example 18, (7S)-7-(1-(4-(1-(2-(2-((2-(2,6-dioxopiperidin-3-yl)-1,3-dioxoisoindolin-4-yl)amino)ethoxy)ethyl)-1H-1,2,3-triazol-4-yl)butanoyl)piperidin-4-yl)-2-(4-phenoxyphenyl)-4,5,6,7-tetrahydropyrazolo[1,5-a]pyrimidine-3-carboxamide]
3 | 6410 nM | NC(=O)c1c(-c2ccc(Oc3ccccc3)cc2)nn2c1NCC[C@H]2C1CCN(C(=O)CCCc2cn(CCCCNC(=O)COc3cccc4c3C(=O)N(C3CCC(=O)NC3=O)C4=O)nn2)CC1 (stereo partly drawn) [Example 19, (7S)-7-(1-(4-(1-(4-(2-((2-(2,6-dioxopiperidin-3-yl)-1,3-dioxoisoindolin-4-yl)oxy)acetamido)butyl)-1H-1,2,3-triazol-4-yl)butanoyl)piperidin-4-yl)-2-(4-phenoxyphenyl)-4,5,6,7-tetrahydropyrazolo[1,5-a]pyrimidine-3-carboxamide]
4 | > 10000 nM | NC(=O)c1c(-c2ccc(Oc3ccccc3)cc2)nn2c1NCC[C@H]2C1CCN(C(=O)CCCc2cn(CCOCCOCCNc3cccc4c3C(=O)N(C3CCC(=O)NC3=O)C4=O)nn2)CC1 (stereo partly drawn) [Example 20, (7S)-7-(1-(4-(1-(2-(2-(2-((2-(2,6-dioxopiperidin-3-yl)-1,3-dioxoisoindolin-4-yl)amino)ethoxy)ethoxy)ethyl)-1H-1,2,3-triazol-4-yl)butanoyl)piperidin-4-yl)-2-(4-phenoxyphenyl)-4,5,6,7-tetrahydropyrazolo[1,5-a]pyrimidine-3-carboxamide]
5 | 388 nM | NC(=O)c1c(-c2ccc(Oc3ccccc3)cc2)nn2c1NCC[C@H]2C1CCN(C(=O)CCCc2cn(CCOCCOCCOCCNc3cccc4c3C(=O)N(C3CCC(=O)NC3=O)C4=O)nn2)CC1 (stereo partly drawn) [Example 21, (7S)-7-(1-(4-(1-(2-(2-(2-(2-((2-(2,6-dioxopiperidin-3-yl)-1,3-dioxoisoindolin-4-yl)amino)ethoxy)ethoxy)ethoxy)ethyl)-1H-1,2,3-triazol-4-yl)butanoyl)piperidin-4-yl)-2-(4-phenoxyphenyl)-4,5,6,7-tetrahydropyrazolo[1,5-a]pyrimidine-3-carboxamide]
6 | 34 nM | NC(=O)c1c(-c2ccc(Oc3ccccc3)cc2)nn2c1NCC[C@H]2C1CCN(CCOCCOCC(=O)Nc2ccc3c(c2)C(=O)N(C2CCC(=O)NC2=O)C3=O)CC1 (stereo partly drawn) [Example 24, (7S)-7-(1-(2-(2-(2-((2-(2,6-dioxopiperidin-3-yl)-1,3-dioxoisoindolin-5-yl)amino)-2-oxoethoxy)ethoxy)ethyl)piperidin-4-yl)-2-(4-phenoxyphenyl)-4,5,6,7-tetrahydropyrazolo[1,5-a]pyrimidine-3-carboxamide]
7 | > 10000 nM | NC(=O)c1c(-c2ccc(Oc3ccccc3)cc2)nn2c1NCC[C@H]2C1CCN(C(=O)COCCCCCCCCNC(=O)COc2cccc3c2CN(C2CCC(=O)NC2=O)C3=O)CC1 (stereo partly drawn) [Example 25, (7S)-7-(1-(2-((8-(2-((2-(2,6-dioxopiperidin-3-yl)-1-oxoisoindolin-4-yl)oxy)acetamido)octyl)oxy)acetyl)piperidin-4-yl)-2-(4-phenoxyphenyl)-4,5,6,7-tetrahydropyrazolo[1,5-a] pyrimidine-3-carboxamide]
8 | > 10000 nM | NC(=O)c1c(-c2ccc(Oc3ccccc3)cc2)nn2c1NCC[C@H]2C1CCN(C(=O)COCCCCCCCCNc2cccc3c2C(=O)N(C2CCC(=O)NC2=O)C3=O)CC1 (stereo partly drawn) [Example 26, (7S)-7-(1-(2-((8-((2-(2,6-dioxopiperidin-3-yl)-1,3-dioxoisoindolin-4-yl)amino)octyl)oxy)acetyl)piperidin-4-yl)-2-(4-phenoxyphenyl)-4,5,6,7-tetrahydropyrazolo[1,5-a]pyrimidine-3-carboxamide]
9 | > 10000 nM | NC(=O)c1c(-c2ccc(Oc3ccccc3)cc2)nn2c1NCC[C@H]2C1CCN(C(=O)COCCOCCOCCOCCNc2cccc3c2C(=O)N(C2CCC(=O)NC2=O)C3=O)CC1 (stereo partly drawn) [Example 27, (7S)-7-(1-(14-((2-(2,6-dioxopiperidin-3-yl)-1,3-dioxoisoindolin-4-yl)amino)-3,6,9, 12-tetraoxatetradecanoyl)piperidin-4-yl)-2-(4-phenoxyphenyl)-4,5,6,7-tetrahydropyrazolo[1,5-a]pyrimidine-3-carboxamide]
10 | 1480 nM | NC(=O)c1c(-c2ccc(Oc3ccccc3)cc2)nn2c1NCC[C@H]2C1CCN(C(=O)COCCOCCNC(=O)CCN2CCN(c3ccc4c(c3)C(=O)N(C3CCC(=O)NC3=O)C4=O)CC2)CC1 (stereo partly drawn) [Example 28, (7S)-7-(1-(2-(2-(2-(3-(4-(2-(2,6-dioxopiperidin-3-yl)-1,3-dioxoisoindolin-5-yl)piperazin-1-yl)propanamido)ethoxy)ethoxy)acetyl)piperidin-4-yl)-2-(4-phenoxyphenyl)-4,5,6,7-tetrahydropyrazolo[1,5-a]pyrimidine-3-carboxamide]
11 | 458 nM | NC(=O)c1c(-c2ccc(Oc3ccccc3)cc2)nn2c1NCC[C@H]2C1CCN(C(=O)COCCOCCOCCOCCNC(=O)COc2cccc3c2CN(C2CCC(=O)NC2=O)C3=O)CC1 (stereo partly drawn) [Example 29, (7S)-7-(1-(1-((2-(2,6-dioxopiperidin-3-yl)-1-oxoisoindolin-4-yl)oxy)-2-oxo-6,9, 12, 15-tetraoxa-3-azaheptadecan-17-oyl)piperidin-4-yl)-2-(4-phenoxyphenyl)-4,5,6,7-tetrahydropyrazolo[1,5-a]pyrimidine-3-carboxamide]
12 | > 10000 nM | NC(=O)c1c(-c2ccc(Oc3ccccc3)cc2)nn2c1NCC[C@H]2C1CCN(C(=O)CCCCNc2cccc3c2C(=O)N(C2CCC(=O)NC2=O)C3=O)CC1 (stereo partly drawn) [Example 31, (7S)-7-(1-(5-((2-(2,6-dioxopiperidin-3-yl)-1,3-dioxoisoindolin-4-yl)amino)pentanoyl)piperidin-4-yl)-2-(4-phenoxyphenyl)-4,5,6,7-tetrahydropyrazolo[1,5-a]pyrimidine-3-carboxamide]
13 | > 10000 nM | NC(=O)c1c(-c2ccc(Oc3ccccc3)cc2)nn2c1NCC[C@H]2C1CCN(C(=O)CCCNc2cccc3c2C(=O)N(C2CCC(=O)NC2=O)C3=O)CC1 (stereo partly drawn) [Example 32, (7S)-7-(1-(4-((2-(2,6-dioxopiperidin-3-yl)-1,3-dioxoisoindolin-4-yl)amino)butanoyl)piperidin-4-yl)-2-(4-phenoxyphenyl)-4,5,6,7-tetrahydropyrazolo[1,5-a]pyrimidine-3-carboxamide]
14 | 1890 nM | NC(=O)c1c(-c2ccc(Oc3ccccc3)cc2)nn2c1NCC[C@H]2C1CCN(C(=O)CCCNC(=O)COCCOCCOCCOCCNc2cccc3c2C(=O)N(C2CCC(=O)NC2=O)C3=O)CC1 (stereo partly drawn) [Example 34, (7S)-7-(1-(1-((2-(2,6-dioxopiperidin-3-yl)-1,3-dioxoisoindolin-4-yl)amino)-14-oxo-3,6,9, 12-tetraoxa-15-azanonadecan-19-oyl)piperidin-4-yl)-2-(4-phenoxyphenyl)-4,5,6,7-tetrahydropyrazolo[1,5-a]pyrimidine-3-carboxamide]
15 | 326 nM | NC(=O)c1c(-c2ccc(Oc3ccccc3)cc2)nn2c1NCC[C@H]2C1CCN(C(=O)COCCOCCNC(=O)CCCCN2CCN(c3ccc4c(c3)C(=O)N(C3CCC(=O)NC3=O)C4=O)CC2)CC1 (stereo partly drawn) [Example 35, (7S)-7-(1-(2-(2-(2-(5-(4-(2-(2,6-dioxopiperidin-3-yl)-1,3-dioxoisoindolin-5-yl)piperazin-1-yl)pentanamido)ethoxy)ethoxy)acetyl)piperidin-4-yl)-2-(4-phenoxyphenyl)-4,5,6,7-tetrahydropyrazolo[1,5-a]pyrimidine-3-carboxamide]
16 | 120 nM | CN(CCOCCNc1cccc2c1C(=O)N(C1CCC(=O)NC1=O)C2=O)CCC(=O)N1CCC([C@@H]2CCNc3c(C(N)=O)c(-c4ccc(Oc5ccccc5)cc4)nn32)CC1 (stereo partly drawn) [Example 37, (7S)-7-(1-(3-((2-(2-((2-(2,6-dioxopiperidin-3-yl)-1,3-dioxoisoindolin-4-yl)amino)ethoxy)ethyl)(methyl)amino)propanoyl)piperidin-4-yl)-2-(4-phenoxyphenyl)-4,5,6,7-tetrahydropyrazolo[1,5-a]pyrimidine-3-carboxamide]
17 | 371 nM | CN(CCNc1cccc2c1C(=O)N(C1CCC(=O)NC1=O)C2=O)CCC(=O)N1CCC([C@@H]2CCNc3c(C(N)=O)c(-c4ccc(Oc5ccccc5)cc4)nn32)CC1 (stereo partly drawn) [Example 38, (7S)-7-(1-(3-((2-((2-(2,6-dioxopiperidin-3-yl)-1,3-dioxoisoindolin-4-yl)amino)ethyl)(methyl)amino)propanoyl)piperidin-4-yl)-2-(4-phenoxyphenyl)-4,5,6,7-tetrahydropyrazolo[1,5-a]pyrimidine-3-carboxamide]
